Results from patent US20170129911A1, “COMPLEXES COMPRISING A PLATINUM COMPOUND AND AN IMMUNE CHECKPOINT INHIBITOR AND RELATED METHODS” (Massachusetts Institute of Technology, priority 2015, published 2017).
Entries after “also recorded” stand apart in the source; their conditions may differ.

Legend:
T-cells = assay: Mixed leukocyte reaction (T-cell proliferation), PBMC/SKOV3 coculture; type: cell-based, human; conditions: SKOV3/MLR coculture, 2 10 μM, 6 days, CFSE flow cytometry
Procedure: To target a key component of the immunosuppression promoting IDO-AHR-IL6 loop, the immunomodulatory phenotype of 2 was investigated. A mixed leukocyte reaction (MLR) was carried out. In this experiment, suspended 2×10^5 peripheral blood mononuclear cells (PBMCs) stimulated with phytohemagglutinin (PHA-P), and 2×10^5 cells of PBMCs from unrelated healthy donors as responders stained with carboxyfluorescein succinimidyl ester (CFSE), a cell permeable fluorescent dye that binds amine residues (mostly lysines) covalently, through its succinimidyl ester group were cocultured with adherent SKOV-3 (2000 cells). After 6 days of culture, PBMCs were harvested by centrifugation of medium, stained with APC-anti CD3 and T-cell proliferation was assessed by flow cytometry. T-cells express CD3, a cell surface multimeric protein complex involved in T-cell development and activation.
SKOV3 cells (2×10^3) were seeded in 6-well plates. […] The T-cell population of PBMCs was measured by FACS Calibur-HTS flow cytometer (BD Biosciences) after staining with APC-anti CD3 antibody. PHA-P stimulated PBMCs (2×10^5) and carboxyfluorescein succinimidyl ester (CFSE) stained PBMCs (2×10^5) from unrelated donors were added in co-cultures of SKOV3 tumor cells (treated and untreated) and incubated for six days at 37° C., the and CFSE signal analyzed by flow cytometry on days 1 and 6.

SKOV3 cells = assay: Subcellular distribution of platinum (GFAAS); type: cell-based, human; conditions: SKOV3, 5 μM, 17 h
Procedure: To gain further insight into the mode of action was studied of 1 and 2, the subcellular distribution of platinum. SKOV3 cells were incubated with the drug candidates (5 μM) for 17 h, using cisplatin as a control. The platinum content was measured by using GFAAS.
To measure cellular uptake, ca. 20 million SKOV3 cells were treated with 5 μM compounds 1, 2 and cisplatin at 37° C. for 17 h. The media were removed, and the cells were washed with PBS solution (1 mL×3), harvested, and centrifuged. The cell pellet was suspended in an appropriate volume of PBS to obtain a homogeneous suspension (100 μL). The nuclear and cytoplasmic extraction kit (NE-PER, Thermo Scientific Inc.) was used to extract the separate cytoplasmic, nuclear, and pelleted fractions. The fractions were mineralized with 70% HNO3 and then heated at 95° C. for 10 min. The platinum content was analyzed by GF-AAS. Cellular platinum levels were expressed as pmol of Pt per million cells. Results are presented as the mean of three determinations for each data point.

HSA = HSA (Homo sapiens, UniProt P02768); assay: HSA binding (FPLC, GFAAS, ESI-MS); conditions: ESI mass-spectrometric analysis
human IDO in SKOV3 cells = assay: Immunoblotting and qRT-PCR of IDO expression in SKOV3 cells; type: cell-based; conditions: immunoblotting and qRT-PCR
Procedure: Total RNA was isolated with the Qiagen RNAeasy RNA isolation kit (Hilden, Germany) and cDNA was synthesized with the Applied Biosystems reverse-transcription-kit (Foster City, Calif., USA). qRT-PCR was performed in a Light cycler 480 II thermo cycler with SYBR Green PCR Mastermix (Roche). All primers were separated by at least one intron on the genomic DNA to exclude its amplification. PCR reactions were checked by including no-RT controls, by omission of templates, and by melting curves. Standard curves were generated for each gene. Relative quantification of gene expression was determined by comparison of threshold values. All samples were analyzed in duplicate at two different dilutions. All results were normalized to GAPDH.
Cells were washed with PBS, scraped into SDS-PAGE loading buffer (64 mM Tris-HCl (pH 6.8)/9.6% glycerol/2% SDS/5% β-mercaptoethanol/0.01% Bromophenol Blue), and incubated at 95° C. for 10 min. […] Membranes were blocked in 5% (w/v) bovine serum albumin in PBST (PBS/0.1% Tween 20) and incubated with the appropriate primary antibodies (Cell Signalling Technology and Santa Cruz). After incubation with horseradish peroxidase-conjugated secondary antibodies (Cell Signalling Technology), 1:1000, immuno complexes were detected with the ECL detection reagent (BioRad) and analyzed using UVP biospectrum imaging system fitted with a chemiluminescence filter.

[1] = Tolerability/toxicity in mice; type: in vivo

HSA, sequence (P02768 25-609): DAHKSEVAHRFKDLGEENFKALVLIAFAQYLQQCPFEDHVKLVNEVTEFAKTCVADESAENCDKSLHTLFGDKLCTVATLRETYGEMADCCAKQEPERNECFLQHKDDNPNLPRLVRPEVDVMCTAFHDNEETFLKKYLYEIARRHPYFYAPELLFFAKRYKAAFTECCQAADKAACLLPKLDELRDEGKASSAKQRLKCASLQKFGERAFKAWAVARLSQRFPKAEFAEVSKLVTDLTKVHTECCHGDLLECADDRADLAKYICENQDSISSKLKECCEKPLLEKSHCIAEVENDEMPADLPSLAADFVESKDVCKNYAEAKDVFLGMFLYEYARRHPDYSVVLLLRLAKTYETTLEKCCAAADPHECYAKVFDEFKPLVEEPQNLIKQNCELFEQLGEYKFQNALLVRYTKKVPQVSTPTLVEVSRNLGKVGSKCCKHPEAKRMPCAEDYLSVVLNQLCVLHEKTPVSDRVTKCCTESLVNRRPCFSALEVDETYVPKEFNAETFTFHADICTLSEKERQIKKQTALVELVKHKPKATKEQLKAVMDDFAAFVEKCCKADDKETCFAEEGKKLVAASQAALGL

CCCCCCCCCCCCCCCCNC(=O)[O][Pt]([NH2])([NH2])([Cl])([Cl])[O]C(=O)CCC(=O)NCCOC(=O)[C@H](N)Cc1cn(C)c2ccccc12 (mixture of isomers) [Compound 2, cis,cis,trans-[Pt(NH3)2Cl2(O2CC2H4OCNHC2H4O2C-D-1MT)(O2CNHC16H33)]]
alloreactive T-cell proliferation (T-cells): enhancement of alloreactive T-cell proliferation
platinum content within the nucleus (SKOV3 cells): comparable to that of cisplatin
binding to HSA (HSA): binds HSA
IDO protein expression (IDO inhibition) (human IDO in SKOV3 cells): effectively block IDO protein expression
toxicity / tolerance in mice [1]: low toxicity in mice; also recorded: mice are tolerant
